For one data set, the system named is Abutilon theophrasti. As to conditions: for plant mortality, measured value: Abutilon theophrasti; for Abutilon theophrasti mortality, measured value: 20 days after treatment.
In the next data set the test system is Aeschynomene indica. As to conditions: for plant mortality, measured value: Aeschynomene indica; for Aeschynomene indica mortality, measured value: 20 days after treatment.
Another data set relates to Echinochloa crus. As to conditions: for plant mortality, measured value: Echinochloa crus; for Echinochloa crus mortality, measured value: 20 days after treatment.
The subject of the next data set is Xanthium spinosum. As to conditions: for plant mortality, measured value: Xanthium spinosum; for Xanthium spinosum mortality, measured value: 20 days after treatment.
The next data set concerns Digitaria sanguinalis. As to conditions: for plant mortality, measured value: Digitaria sanguinalis; for Digitaria sanguinalis mortality, measured value: 20 days after treatment.
In the next data set the test system is ryegrass. In words: Nonselective composition of 1 uracil compound and 2 herbicidally active compounds, plant mortality. The data set is classed as in vivo.
The next data set relates to wild amaranth. The description is as above. The data set is classed as in vivo.
Where [1] appears, read: 480 h, read-out: ryegrass mortality (measured value).
Where [2] appears, read: Amaranthus caudatus, 480 h, read-out: Wild amaranth mortality (measured value).

Read-outs that look alike come from different tables or passages of the source.

Source text for Abutilon theophrasti: (§1) X is % damage by uracil compound (a) of formula 1 at the rate of application of p kg/ha; Y is % damage by conventional herbicidal compound (b) at the rate of application of q kg/ha; and E is the expected damage caused by compounds (a) and (b) at a rate of application of p and q kg/ha.
(§2) The expected activity for a given combination of two herbicides can be calculated using equation 1 above.
Source text for Aeschynomene indica: as §1, §2
Source text for Digitaria sanguinalis: as §1, §2
Source text for Echinochloa crus: as §1, §2
Source text for Xanthium spinosum: as §1, §2
Source text for ryegrass: as §1, §2
Source text for wild amaranth: as §1, §2

In the case of `O=C(O)COc1ccc(Cl)cc1Cl` [2,4-D], the “Data (measured value) Abutilon theophrasti” value with Abutilon theophrasti (100 g/ha) came to 7. The “plant mortality, measured value” is 7 in the data set on Abutilon theophrasti (100 g/ha); 21 in the data set with Abutilon theophrasti (200 g/ha); 47 in the data set with Abutilon theophrasti (400 g/ha); 7 with Aeschynomene indica (100 g/ha); 24 in the data set with Aeschynomene indica (200 g/ha); 51 in the data set with Aeschynomene indica (400 g/ha). Moreover, the “plant mortality, measured value” is given as 0 with Echinochloa crus (100 g/ha); 0 with Echinochloa crus (200 g/ha); 0 in the data set with Echinochloa crus (400 g/ha); 10 with Xanthium spinosum (100 g/ha); 22 in the data set with Xanthium spinosum (200 g/ha); 50 in the data set with Xanthium spinosum (400 g/ha). The “plant mortality, measured value” in the data set on Digitaria sanguinalis (100 g/ha), in the data set on Digitaria sanguinalis (200 g/ha) and in the data set with Digitaria sanguinalis (400 g/ha) was 0 in each case. Also, in the data set with Aeschynomene indica (100 g/ha), the “Data (measured value) Aeschynomene indica” value is on record as 7. Also, the “Data (measured value) Echinochloa crus” value in the data set with Echinochloa crus (100 g/ha) turned out to be 0. The “Data (measured value) Xanthium spinosum” value with Xanthium spinosum (100 g/ha) is 10. Also, the “Data (measured value) Digitaria sanguinalis” value with Digitaria sanguinalis (100 g/ha) worked out at 0.

On to `C=CCOC(=O)C(C)(C)OC(=O)c1cc(-n2c(=O)cc(C(F)(F)F)n(C)c2=O)ccc1Cl` [(Butafenacil], for which the “plant mortality, measured value” is listed as 51 with Abutilon theophrasti (16 g/ha); 67 in the data set with Aeschynomene indica (16 g/ha); 5 in the data set with Echinochloa crus (16 g/ha); 54 with Xanthium spinosum (16 g/ha); 5 with Digitaria sanguinalis (16 g/ha).

For `CCOCN(C(=O)CCl)c1c(C)cccc1CC` [Acetochlor], the pest or weed control at 375 g/ha is 30% in the data set with ryegrass (setting [1]) and 10% in the data set with wild amaranth (setting [2]).

Consider `Nc1cc(Cl)nc(C(=O)O)c1Cl` [Aminopyralid], for which the “ryegrass mortality (measured value)” value in the data set with ryegrass (250 g ai/ha) turned out to be 0. In addition, in the data set with wild amaranth (250 g ai/ha), the “Wild amaranth mortality (measured value)” value is listed as 20.

For the compound `COC(=O)NS(=O)(=O)c1ccc(N)cc1` [Asulam], the pest or weed control at 1250 g/ha in the data set on ryegrass (setting [1]) amounted to 25%; in the data set on wild amaranth (setting [2]), 20%.

`CCNc1nc(Cl)nc(NC(C)C)n1` [Atrazine]: the pest or weed control at 200 g/ha was 30% with ryegrass (setting [1]) and 25% with wild amaranth (setting [2]).

As to `C[C@H](NC(=O)[C@H](C)NC(=O)[C@@H](N)CCP(C)(=O)O)C(=O)O` [Bilanafos], the pest or weed control at 500 g/ha in the data set with ryegrass (480 h, 500 g ai/ha, read-out: ryegrass mortality (measured value)) is 30%; with wild amaranth (Amaranthus caudatus, 480 h, 500 g ai/ha, read-out: Wild amaranth mortality (measured value)), 15%.

For the compound `C[C@@H](Oc1ccc(Oc2ncc(Cl)cc2F)cc1)C(=O)O` [Clodinafop, reference compound], the “Abutilon theophrasti mortality, measured value” in the data set with Abutilon theophrasti (15 g/ha) and in the data set with Abutilon theophrasti (30 g/ha) was 0% in each case. Also, the “Aeschynomene indica mortality, measured value” in the data set with Aeschynomene indica (15 g/ha) and in the data set on Aeschynomene indica (30 g/ha) was 0% in each case. In addition, the “Echinochloa crus mortality, measured value” with Echinochloa crus (15 g/ha) is given as 25%; in the data set on Echinochloa crus (30 g/ha), 53%. For the same compound, the “Xanthium spinosum mortality, measured value” with Xanthium spinosum (15 g/ha) and in the data set with Xanthium spinosum (30 g/ha) was 0% throughout. Moreover, the figures for the “Digitaria sanguinalis mortality, measured value” with Digitaria sanguinalis (15 g/ha) and in the data set with Digitaria sanguinalis (30 g/ha) were 21% and 50%, respectively.

For `CC1(C)CON(Cc2ccccc2Cl)C1=O` [Clomazone], the results for the pest or weed control at 175 g/ha in the data set on ryegrass (setting [1]) and in the data set on wild amaranth (setting [2]) were 15% and 30%, respectively.

`O=C(O)c1nc(Cl)ccc1Cl` [Clopyralid]: the pest or weed control at 125 g/ha is 0% in the data set on ryegrass (setting [1]) and 10% in the data set on wild amaranth (setting [2]).

As for `CC(Oc1ccc(Oc2ccc(Cl)cc2Cl)cc1)C(=O)O` (stereo not drawn) [Diclofop], the pest or weed control at 175 g/ha was determined as 30% with ryegrass (setting [1]) and 0% in the data set on wild amaranth (setting [2]).

As to `C/C(=N\NC(=O)Nc1cc(F)cc(F)c1)c1ncccc1C(=O)O` [Diflufenzopyr], the pest or weed control at 12.5 g/ha in the data set on ryegrass (setting [1]) and in the data set with wild amaranth (setting [2]) was 20% each time.

For `CCOC1Oc2ccc(OS(C)(=O)=O)cc2C1(C)C` (stereo not drawn) [Ethofumesate], the pest or weed control at 250 g/ha in the data set with ryegrass (setting [1]) is 25%; with wild amaranth (setting [2]), 20%.

Regarding `Cc1cc(Cl)ccc1OCC(=O)O` [MCPA], the “Data (measured value) Abutilon theophrasti” value was determined as 11 in the data set on Abutilon theophrasti (75 g/ha), 32 with Abutilon theophrasti (150 g/ha) and 64 in the data set on Abutilon theophrasti (300 g/ha). Besides, the “Data (measured value) Aeschynomene indica” value amounted to 11 in the data set on Aeschynomene indica (75 g/ha), 24 in the data set with Aeschynomene indica (150 g/ha) and 58 with Aeschynomene indica (300 g/ha). The “Data (measured value) Echinochloa crus” value in the data set on Echinochloa crus (75 g/ha), in the data set with Echinochloa crus (150 g/ha) and in the data set with Echinochloa crus (300 g/ha) was 0 throughout. The “Data (measured value) Xanthium spinosum” value is listed as 8 in the data set on Xanthium spinosum (75 g/ha), 25 in the data set on Xanthium spinosum (150 g/ha) and 59 in the data set on Xanthium spinosum (300 g/ha). Besides, the “Data (measured value) Digitaria sanguinalis” value in the data set with Digitaria sanguinalis (75 g/ha), in the data set with Digitaria sanguinalis (150 g/ha) and in the data set with Digitaria sanguinalis (300 g/ha) was 0 in each case.

In the case of `Cc1cc(Cl)ccc1OCCCC(=O)O` [MCPB], the “plant mortality, measured value” is given as 11 in the data set with Abutilon theophrasti (75 g/ha); 22 in the data set on Abutilon theophrasti (150 g/ha); 52 in the data set on Abutilon theophrasti (300 g/ha); 13 in the data set on Aeschynomene indica (75 g/ha); 32 in the data set on Aeschynomene indica (150 g/ha); 64 with Aeschynomene indica (300 g/ha). The “plant mortality, measured value” was determined as 9 in the data set on Echinochloa crus (75 g/ha); 27 in the data set with Echinochloa crus (150 g/ha); 57 in the data set on Echinochloa crus (300 g/ha); 12 in the data set on Xanthium spinosum (75 g/ha); 27 in the data set with Xanthium spinosum (150 g/ha); 58 in the data set on Xanthium spinosum (300 g/ha). For the same compound, the “plant mortality, measured value” in the data set on Digitaria sanguinalis (75 g/ha) is given as 12; in the data set with Digitaria sanguinalis (150 g/ha) it was 25; in the data set with Digitaria sanguinalis (300 g/ha) it was 56.

On to `C[C@@H](Oc1ccc(Oc2nc3ccc(Cl)cc3o2)cc1)C(=O)N(C)c1ccccc1F` [Metamifop, reference compound], for which the “Abutilon theophrasti mortality, measured value” in the data set on Abutilon theophrasti (25 g/ha), with Abutilon theophrasti (50 g/ha) and in the data set on Abutilon theophrasti (100 g/ha) was 0% throughout. The “plant mortality, measured value” in the data set on Abutilon theophrasti (25 g/ha), in the data set with Abutilon theophrasti (50 g/ha), in the data set with Abutilon theophrasti (100 g/ha), in the data set with Aeschynomene indica (25 g/ha), with Aeschynomene indica (50 g/ha) and in the data set on Aeschynomene indica (100 g/ha) was 0 throughout. In addition, the “plant mortality, measured value” is reported as 11 in the data set on Echinochloa crus (25 g/ha); 26 in the data set on Echinochloa crus (50 g/ha); 57 in the data set on Echinochloa crus (100 g/ha); 0 in the data set with Xanthium spinosum (25 g/ha); 0 in the data set with Xanthium spinosum (50 g/ha); 0 with Xanthium spinosum (100 g/ha). Besides, the results for the “plant mortality, measured value” in the data set with Digitaria sanguinalis (25 g/ha), in the data set with Digitaria sanguinalis (50 g/ha) and with Digitaria sanguinalis (100 g/ha) were 11, 23 and 48, respectively. The “Aeschynomene indica mortality, measured value” in the data set on Aeschynomene indica (25 g/ha), with Aeschynomene indica (50 g/ha) and in the data set on Aeschynomene indica (100 g/ha) was 0% each time. Further, the “Echinochloa crus mortality, measured value” with Echinochloa crus (25 g/ha) was found to be 11%; in the data set with Echinochloa crus (50 g/ha), 26%; in the data set on Echinochloa crus (100 g/ha), 57%. The “Xanthium spinosum mortality, measured value” with Xanthium spinosum (25 g/ha), in the data set on Xanthium spinosum (50 g/ha) and with Xanthium spinosum (100 g/ha) was 0% throughout. For the same compound, the entries for the “Digitaria sanguinalis mortality, measured value” in the data set with Digitaria sanguinalis (25 g/ha), with Digitaria sanguinalis (50 g/ha) and in the data set on Digitaria sanguinalis (100 g/ha) were 11%, 23% and 48%, respectively.

Regarding `COc1cc(OC)nc(NC(=O)NS(=O)(=O)c2ncccc2OCC(F)(F)F)n1` [Trifloxysulfuron], the “Data (measured value) Abutilon theophrasti” value with Abutilon theophrasti (1.25 g/ha) is listed as 12; in the data set on Abutilon theophrasti (5 g/ha), 61. Besides, the “plant mortality, measured value” stood at 12 with Abutilon theophrasti (1.25 g/ha); 61 in the data set on Abutilon theophrasti (5 g/ha); 9 in the data set on Aeschynomene indica (1.25 g/ha); 58 with Aeschynomene indica (5 g/ha); 8 in the data set on Echinochloa crus (1.25 g/ha); 56 in the data set on Echinochloa crus (5 g/ha). In addition, the “plant mortality, measured value” in the data set with Xanthium spinosum (1.25 g/ha) was determined as 13; with Xanthium spinosum (5 g/ha), 62; in the data set on Digitaria sanguinalis (1.25 g/ha), 8; in the data set with Digitaria sanguinalis (5 g/ha), 51. Further, the “Data (measured value) Aeschynomene indica” value in the data set with Aeschynomene indica (1.25 g/ha) came to 9; in the data set with Aeschynomene indica (5 g/ha), 58. Further, the “Data (measured value) Echinochloa crus” value with Echinochloa crus (1.25 g/ha) is recorded as 8; in the data set with Echinochloa crus (5 g/ha), 56. For the same compound, the “Data (measured value) Xanthium spinosum” value with Xanthium spinosum (1.25 g/ha) was 13; with Xanthium spinosum (5 g/ha), 62. For the same compound, the “Data (measured value) Digitaria sanguinalis” value with Digitaria sanguinalis (1.25 g/ha) was found to be 8; in the data set with Digitaria sanguinalis (5 g/ha) it was 51.

(Values after patent publication US10206399B2, “Herbicidal composition comprising uracil compound as active ingredient” (Dongbu Farm Hannong Co., Ltd., priority 2012, dated 2019).)
